Data taken from US20260128119A1, “SCREENING METHODS FOR ACINETOBACTER BAUMANNII SPOT ENZYME MODULATORS” (priority 2022, published 2026).

Columns and labels:
[1] = tested on: SpoTAb; assay: HD (ppGpp hydrolysis) activity of SpoTAb in presence of added factors; format: biochemical, Acinetobacter baumannii; details: metal-free full-length SpoTAb (completely HD inactive)
Description: FIG. 1. Full-length monomeric A. baumannii SpoT adopts a compact “mushroom”-shaped HD-active τ-state. (a) Structure of “mushroom”-shaped SpoTAb-ppGpp complex in the τ-state. The domain organization, from N to C terminus: NTD domains hydrolase (HD), pseudo-synthetase (pseudo-SYNTH) and Core, and CTD domains, TGS, Helical (HEL), Zn-finger (ZFD) and RNA recognition motif (RRM). The ppGpp alarmone is labelled. (b) Cartoon representation the SpoTAb. The “stem” of the mushroom is formed by the enzymatic HD domain and the “cap” by the regulatory domains: NTD pseudo-SYNTH domain and the CTD domains. (c) Ribbon representation of the SpoTAb-ppGpp complex. The α6/α7 motif is held in the hydrolysis-compatible position by the folded Core domain and the TGS β-hairpin, with the Core domain communicating allosteric signals to HD from the regulatory domains. […] (e) Analytical size exclusion chromatography (SEC) of SpoTAb supports its monomeric nature in solution. (f) Experimental X-ray scattering (SAXS) analysis of SpoTAb at 8 mg/mL further confirms the monomeric nature of SpoTAb. […] (g) Ab initio envelope of SpoTAb reconstructed from the experimental SAXS data superimposed on the crystal structure.
While the SYNTH and TGS domains are sequestered in the “cap”, the HD hydrolase stands out unconfined and primed for (p)ppGpp hydrolysis. […]

[2] = tested on: SpoTAb^NTD; assay: Isothermal titration calorimetry (ITC) of ligand binding to SpoTAb^NTD; design: species or system Acinetobacter baumannii
Description: This is also the case with the specialisation of SpoTAb as a monofunctional hydrolase where the pseudo-SYNTH domain has evolved into a strictly regulatory/structural domain. […] These involve the residues that coordinate adenosine and guanosine (R249 to N241, R277 to E267 and Y329 to N304) and the majority of phosphate-coordinating groups. Crucially, the catalytic residues D272 and Q347 are substituted for S263 and T321, respectively. […]; Roghanian et al., Mol Cell, 2021).
To directly validate the lack of pppGpp-mediated regulation in SpoTAb, we characterised the interaction between pppGpp and SpoTAb^NTD by ITC. […] Following the experimental approach used earlier for SpoTEc (Roghanian et al., Mol Cell, 2021), we next grafted the allosteric site of A. baumannii RelA (^236RelA^246) onto SpoTAb^NTD (replacing ^201SpoTAb^211).
The essential role of the divalent manganese ion Mn^2+ in (p)ppGpp pyrophosphate hydrolysis is well documented for both Rel (Hogg et al., Cell, 2004; Takada et al., Nucleic Acids Res, 2021; Avarbock et al., Biochemistry, 2000; Van Nerom et al., Acta Crystallogr F Struct Biol Commun, 2019) and SpoTEc (Heinemeyer et al., Eur J Biochem, 1978).

[3] = target: the molecule itself; assay: SEC-SAXS and analytical size exclusion chromatography in solution (oligomeric state, self-association)

For [Mn+2] [Mn^2+], the “HD activity upon addition to metal-free enzyme” value [1] was “readily restored”.

With Nc1nc2c(ncn2[C@@H]2O[C@H](COP(=O)(O)OP(=O)(O)O)[C@@H](O)[C@H]2O)c(=O)[nH]1 [GDP] the “GDP binding by SpoTAb” value [2] was “does not bind”.

In the case of Nc1nc2c(ncn2C2OC(COP(=O)(O)OP(=O)(O)OP(=O)(O)O)C(OP(=O)(O)OP(=O)(O)O)C2O)c(=O)[nH]1 (stereo not shown) [pppGpp, guanosine pentaphosphate], the “allosteric binding of pppGpp” value [2] is reported as “does not bind”.

B1: Acinetobacter baumannii SpoT enzyme (enzyme)
chain: MPGEEVSQAKQQLKLIIDPYLSVSEVEKVLAACDFGDLAHTGITRKSGEPYILHPIAVSCILANMRLDPETLMAALLHDVIEDTQYTKDDIIERFGQTVAELVDGVTKLSQSSDKEYNKAASFRKILQATLQDPRVIIIKLADRYHNMTTLGALRPDKRARIAQETFDIFVPMARLVGMNEMADNLENLCYQNLDLDMFDNVQNALLQTKPERCKYQSIWEQNLAELLHNYHIQGRIKKKNNNIELLRHFVKNEMDLQELTHSHAFEIVLQSIADCDRLVAALKENFQVIQYQDHIRRPLPGGNQSLMIKLKGEKTTLSLTIQTELMRKAARFGVVLGENAPQTCRSAIQASMQNLNTLIDGECAKTTFNDLLDYLHQEKIWVYTPHGQLHELPQGATVVDFAYSASLFLGNHAVGAKVDGEIKPLSTPLVSGQVIEIITDVLATPNPDWLSFINTQKARRALQHVLKDQDIEEQRLVGAQALSRALKLFNRSINDLSDADWLDLLQWRHIDNKDALFEQIAVGDLLPQLVANHLFANDKHPRAENSDRLIQGTEGIDVKYAHCCNPILGDPIQGHLTRRGLIVHRIRCHNLLHEQHLHPENIMPLQWKADDVDDVRFTAYLAIYMAMNDEQVSDLIYQCRKNNAGVEMVHSNEQRTFVNIVVNNRKHIAKVIRDLRMHYGFPRIERLDAPAPQMEISKVS
notes: Full-length wild-type SpoTAb; also called SpoTAb; A. baumannii SpoT
B1: no binding (tested: 8 mg/mL) [3].
